Key:
Type in all cases: cell-based
[1] = Cell cytotoxicity 50 assay (CC50), MB200 cells, cell titer glo; conditions: human
Outline: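 MB200 cells were seeded at 10 k/well in F10 medium with bFGF, 15% FBS and dexamethasone. Cells were exposed to serially diluted compound (from 10 mM stock) in triplicate for 72 h at 37 °C. Viability was read by CellTiter-Glo luminescence and CC50 was fitted.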

[2] = Cell cytotoxicity 50 assay (CC50), HEK cells; conditions: human
Outline: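 Starting from a 10 mM drug solution, serial dilutions were made in medium and added onto HEK cells, which were then incubated 72 h at 37 °C. Viability was read as CellTiter-Glo luminescence after 5 min, and CC50 was obtained by curve fitting.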

MBD3L2 RNA = assay: RNA isolation and qPCR to determine MBD3L2 RNA levels in FSHD cells; conditions: 48 hrs
Outline: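 FSHD cells were treated one day after seeding with a DUX4 inhibitor (11 μM or 3.6 μM) for 48 h. Total RNA was DNase-treated and reverse-transcribed with random hexamers and M-MLV. MBD3L2 was quantified by SYBR Green qPCR in triplicate against EEF1A as the reference gene.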

O=C(CCCN1CCCC1=O)NCCCc1nc2ccccc2s1 [Compound 118]
CC50 at 72 h [1]: > 10 µM
CC50 at 72 h [2]: > 10 µM
qPCR MBD3L2 Inhib at 11 µM (MBD3L2 RNA): YES

O=C(Cc1ccc(-c2nc3ccccc3s2)cc1)NCCN1CCCC1=O [Compound 119]
CC50 at 72 h [1]: > 10 µM
CC50 at 72 h [2]: > 10 µM
qPCR MBD3L2 Inhib at 11 µM (MBD3L2 RNA): YES

C=C(C)NCCC(=C)Nc1cc(C)cc(Cc2nc3ccccc3s2)c1 [Compound 120]
CC50 at 72 h [1]: > 10 µM
CC50 at 72 h [2]: > 10 µM
qPCR MBD3L2 Inhib at 11 µM (MBD3L2 RNA): YES

CC(=O)NCCCC(=O)Nc1nc(-c2ccccc2)cs1 [Compound 126]
CC50 at 72 h [1]: > 10 µM
CC50 at 72 h [2]: > 10 µM
qPCR MBD3L2 Inhib at 11 µM (MBD3L2 RNA): YES

CC(=O)NC1CCC(C(=O)Nc2nc3ccccc3s2)C1 (stereo not shown) [Compound 131]
CC50 at 72 h [1]: > 10 µM
CC50 at 72 h [2]: > 10 µM
qPCR MBD3L2 Inhib at 11 µM (MBD3L2 RNA): YES

CC(=O)NC1CCC(C(=O)N[C@H]2CC[C@H](c3nc4ccccc4s3)CC2)C1 (stereo partly shown) [Compound 134]
CC50 at 72 h [1]: > 10 µM
CC50 at 72 h [2]: > 10 µM
qPCR MBD3L2 Inhib at 11 µM (MBD3L2 RNA): YES

CC(=O)NCCCc1nc(CCCC(=O)Nc2ccc(-c3nc4cc(F)ccc4s3)cc2)co1 [Compound 138]
CC50 at 72 h [1]: > 10 µM
CC50 at 72 h [2]: 1 to 10 µM
qPCR MBD3L2 Inhib at 11 µM (MBD3L2 RNA): YES

CN(C(=O)CCCN1C(=O)CCC1=O)c1ccc(-c2nc3cc(F)ccc3s2)cc1 [Compound 144]
CC50 at 72 h [1]: > 10 µM
CC50 at 72 h [2]: > 10 µM
qPCR MBD3L2 Inhib at 11 µM (MBD3L2 RNA): YES

CC(=O)NCCCNC(=O)c1ccc(-c2nc3ccccc3s2)o1 [Compound 149]
CC50 at 72 h [1]: > 10 µM
CC50 at 72 h [2]: > 10 µM
qPCR MBD3L2 Inhib at 11 µM (MBD3L2 RNA): YES

O=C(CCCCN1C(=O)CCC1=O)N[C@H]1CC[C@@H](c2nc3ccccc3s2)CC1 [Compound 151]
CC50 at 72 h [1]: > 10 µM
CC50 at 72 h [2]: > 10 µM
qPCR MBD3L2 Inhib at 11 µM (MBD3L2 RNA): YES

O=C(CCCc1cccnc1)NC1CCC(c2nc3ccccc3s2)C1 (stereo not shown) [Compound 157]
CC50 at 72 h [1]: > 10 µM
CC50 at 72 h [2]: > 10 µM
qPCR MBD3L2 Inhib at 11 µM (MBD3L2 RNA): YES

O=C(CCCN1C(=O)CCC1=O)NC1CCC(Cc2nc3ccccc3s2)C1 (stereo not shown) [Compound 158]
CC50 at 72 h [1]: > 10 µM
CC50 at 72 h [2]: > 10 µM
qPCR MBD3L2 Inhib at 11 µM (MBD3L2 RNA): YES

O=C(CCCN1C(=O)CCC1=O)N[C@H]1CC[C@H](c2nc3ccccc3s2)C1 [Compound 161]
qPCR MBD3L2 Inhib at 11 µM (MBD3L2 RNA): YES

O=C(CCCN1C(=O)CCC1=O)N[C@@H]1CC[C@@H](c2nc3ccccc3s2)C1 [Compound 162]
CC50 at 72 h [1]: > 10 µM
CC50 at 72 h [2]: > 10 µM
qPCR MBD3L2 Inhib at 11 µM (MBD3L2 RNA): YES

O=C(CCCc1cccnc1)N[C@H]1CC[C@@H](c2nc3ccccc3s2)CC1 [Compound 163]
CC50 at 72 h [1]: > 10 µM
CC50 at 72 h [2]: > 10 µM
qPCR MBD3L2 Inhib at 11 µM (MBD3L2 RNA): YES

O=C(CCCc1cccnc1)N[C@H]1CC[C@H](c2nc3ccccc3s2)CC1 [Compound 164]
CC50 at 72 h [1]: > 10 µM
CC50 at 72 h [2]: > 10 µM
qPCR MBD3L2 Inhib at 11 µM (MBD3L2 RNA): YES

CN(C(=O)CCCN1C(=O)CCC1=O)c1ccc(Cc2nc3ccccc3s2)cc1 [Compound 169]
CC50 at 72 h [1]: > 10 µM
CC50 at 72 h [2]: > 10 µM
qPCR MBD3L2 Inhib at 11 µM (MBD3L2 RNA): YES

CC(=O)NCCCC(=O)N[C@H]1CC[C@@H](Cc2nc3ccccc3s2)CC1 [Compound 171]
CC50 at 72 h [1]: > 10 µM
CC50 at 72 h [2]: > 10 µM
qPCR MBD3L2 Inhib at 11 µM (MBD3L2 RNA): YES

CC(=O)NCCCC(=O)N[C@H]1CC[C@H](Cc2nc3ccccc3s2)CC1 [Compound 172]
CC50 at 72 h [1]: > 10 µM
CC50 at 72 h [2]: > 10 µM
qPCR MBD3L2 Inhib at 11 µM (MBD3L2 RNA): YES

CC(=O)NCCCNC(=O)C12CCC(c3nc4ccccc4s3)(CC1)CC2 [Compound 173]
CC50 at 72 h [1]: > 10 µM
CC50 at 72 h [2]: > 10 µM
qPCR MBD3L2 Inhib at 11 µM (MBD3L2 RNA): YES

CN(C(=O)CCC1CCC(=O)N1)c1ccc(-c2nc3ccccc3s2)cc1 (stereo not shown) [Compound 177]
CC50 at 72 h [1]: > 10 µM
CC50 at 72 h [2]: > 10 µM
qPCR MBD3L2 Inhib at 11 µM (MBD3L2 RNA): YES

O=C(CCC1CCC(=O)N1)Nc1ccc(Cc2nc3ccccc3s2)cc1 (stereo not shown) [Compound 178]
CC50 at 72 h [1]: > 10 µM
CC50 at 72 h [2]: > 10 µM
qPCR MBD3L2 Inhib at 11 µM (MBD3L2 RNA): YES

O=C(CCC1CCC(=O)N1)Nc1ccc(-c2nc3ccccc3s2)o1 (stereo not shown) [Compound 179]
CC50 at 72 h [1]: > 10 µM
CC50 at 72 h [2]: > 10 µM
qPCR MBD3L2 Inhib at 11 µM (MBD3L2 RNA): YES

CC(=O)N[C@@H]1CC[C@H](C(=O)Nc2nc3ccccc3s2)C1 [Compound 182]
CC50 at 72 h [1]: > 10 µM
CC50 at 72 h [2]: > 10 µM
qPCR MBD3L2 Inhib at 11 µM (MBD3L2 RNA): YES

CC(=O)N[C@H]1CC[C@@H](C(=O)Nc2nc3ccccc3s2)C1 [Compound 183]
CC50 at 72 h [1]: > 10 µM
CC50 at 72 h [2]: > 10 µM
qPCR MBD3L2 Inhib at 11 µM (MBD3L2 RNA): YES

CC(=O)N[C@@H]1CC[C@@H](C(=O)Nc2nc3ccccc3s2)C1 [Compound 185]
CC50 at 72 h [1]: > 10 µM
CC50 at 72 h [2]: > 10 µM
qPCR MBD3L2 Inhib at 11 µM (MBD3L2 RNA): YES

CC(=O)NCCCNC(=O)c1cc(C#N)cc(-c2nc3cc(F)ccc3s2)c1 [Compound 188]
CC50 at 72 h [1]: > 10 µM
CC50 at 72 h [2]: > 10 µM
qPCR MBD3L2 Inhib at 11 µM (MBD3L2 RNA): YES

Reference: patent publication US20250313555A1, “2-SUBSTITUTED THIAZOLE AND BENZOTHIAZOLE COMPOSITIONS AND METHODS AS DUX4 INHIBITORS” (ALTAY THERAPEUTICS, INC., priority 2022, published 2025)
